# From US8546137B2, “Inhibition of dendritic cell-driven regulatory T cell activation and potentiation of tumor antigen-specific T cell responses by interleukin-15 and MAP kinase inhibitor” (The Board of Trustees of the University of Arkansas, priority 2007, dated 2013)
# Legend:
# [1] = system: peptide-loaded autologous LCL; assay: 51Cr-release cytotoxicity assay, CD8+ T cells against peptide-loaded autologous LCL; type: cell-based, human
# Experimental: (§1) Peripheral blood was drawn from healthy adult volunteer donors, following an IRB-approved protocol. PBMC were recovered by gradient centrifugation (Lymphoprep; Greiner Bio-One, Longwood, Fla.). For preparation of DC, PBMC were placed in 6 well plates (Costar, Cambridge, Mass.) at a concentration of 5×10^6/well in AIM-V medium. After incubation for 2-3 hours at 37° C., non-adherent cells were removed and the medium was replaced with AIM-V plus 800 U/ml GM-CSF and 500 U/ml IL-4. On days 3 and 5, half the medium was removed and replaced with AIM-V plus 800 U/ml GM-CSF and 500 U/ml IL-4. Maturation cytokines (1 μM/ml PGE2, 1000 U/ml TNFα, and 500 U/ml IL-1β) were added on day 5. Where indicated, IL-15 (100 ng/ml) was present throughout DC culture (i.e., from day 0, and supplemented on days 3 and 5). For stimulation of peptide-specific CD4^+ helper T cell and CD8^+ CTL responses, DC were loaded with 50 μg/ml of peptide on day 5 (at the time of addition of maturation cytokines) and the DC were harvested 2 days later. The DC were then washed once with AIM-V medium and used for T cell stimulation at a PBMC:DC ratio of 30:1. After 7 days, T cells were collected and restimulated with peptide-loaded DC. […]
# (§2) Standard ^51Cr-release assays were performed as described (24). […] The percentage of target cell lysis was calculated as described (24).
# [2] = system: matriptase 170-204 peptide-specific, DC-activated CD8+ T cells; assay: Foxp3 and GITR expression by flow cytometry, CD8+ T cells; type: cell-based, human
# Experimental: as §1, with “DC. After the second stimulation, CD4^+ or CD8^+ T cells were recovered by positive selection with anti-CD4 or anti-CD8 magnetic beads (Dynabeads, Invitrogen), respectively, yielding populations of at least 95% purity.” for “DC.”
# (§3) Foxp3 expression was determined according to the manufacturer's staining protocol (eBioscience), using the provided fixation and permeabilization buffers. Intracellular cytokine expression was measured by flow cytometry after overnight co-culture of T cells with peptide-pulsed or control autologous LCL. […] Samples were analyzed with a FACSCalibur (Becton-Dickinson) and Cellquest or WinMDI software.
# [3] = system: matriptase 170-204 peptide-specific, DC-activated CD4+ T cells; assay: Foxp3 and GITR expression by flow cytometry, CD4+ T cells; type: cell-based, human
# Experimental: (§4) Peripheral blood was drawn from healthy adult volunteer donors, following an IRB-approved protocol. PBMC were recovered by gradient centrifugation (Lymphoprep; Greiner Bio-One, Longwood, Fla.). For preparation of DC, PBMC were placed in 6 well plates (Costar, Cambridge, Mass.) at a concentration of 5×10^6/well in AIM-V medium. After incubation for 2-3 hours at 37° C., non-adherent cells were removed and the medium was replaced with AIM-V plus 800 U/ml GM-CSF and 500 U/ml IL-4. On days 3 and 5, half the medium was removed and replaced with AIM-V plus 800 U/ml GM-CSF and 500 U/ml IL-4. Maturation cytokines (1 μM/ml PGE2, 1000 U/ml TNFα, and 500 U/ml IL-1β) were added on day 5. Where indicated, IL-15 (100 ng/ml) was present throughout DC culture (i.e., from day 0, and supplemented on days 3 and 5). For stimulation of peptide-specific CD4^+ helper T cell and CD8^+ CTL responses, DC were loaded with 50 μg/ml of peptide on day 5 (at the time of addition of maturation cytokines) and the DC were harvested 2 days later. The DC were then washed once with AIM-V medium and used for T cell stimulation at a PBMC:DC ratio of 30:1. After 7 days, T cells were collected and restimulated with peptide-loaded DC. After the second stimulation, CD4^+ or CD8^+ T cells were recovered by positive selection with anti-CD4 or anti-CD8 magnetic beads (Dynabeads, Invitrogen), respectively, yielding populations of at least 95% purity. During the second and subsequent T cell passages (up to a maximum of six restimulations with peptide-loaded DC, at T cell:DC ratios of between 30:1 and 10:1), 20-100 U/ml IL-2 was added to the medium, and the cultures were periodically fed (every 2-3 days) by changing 50-70% of the medium and addition of fresh IL-2. Where indicated, T cell cultures were supplemented with 100 ng/ml IL-15, starting with the second passage.
# Foxp3 expression was determined according to the manufacturer's staining protocol (eBioscience), using the provided fixation and permeabilization buffers. Intracellular cytokine expression was measured by flow cytometry after overnight co-culture of T cells with peptide-pulsed or control autologous LCL. T cells (1.5×10^6) were plated in 12 well Costar plates in 2 ml RPMI/10Hu. T cells were stimulated with phorbol myristyl acetate (50 ng/ml) and ionomycin (500 ng/ml) as a positive control. At the onset of co-culture, 10 μg/ml of Brefeldin A was added to block cytokine release. Cells were collected after overnight stimulation and fixed in 2% paraformaldehyde in PBS for 10 minutes at room temperature. The cells were washed once in PBS and again in 0.5% saponin and 1% BSA in PBS. […] Samples were analyzed with a FACSCalibur (Becton-Dickinson) and Cellquest or WinMDI software.
# [4] = system: tumor antigen-specific CD4+ T cells; assay: PD-1 expression by CD4+ T cells stimulated with treated DC; type: cell-based, human; settings: treatment of DC
# Experimental: (§5) Treatment of DC with IL-15 and a p38 MAP kinase inhibitor enhances CD4^+ helper T cell TNFα expression in response to tumor antigen stimulation, and diminishes Treg foxp3 expression. DC were treated with IL-15 (100 ng/ml) and/or a p38 MAP kinase inhibitor (10 μM p38 MAP kinase inhibitor III, from Calbiochem, La Jolla, Calif.) throughout their culture (i.e., from day 0 through completion of DC maturation on day 7). DC were loaded with the hepsin 48-84 peptide antigen on day 5 (i.e., at the time of addition of maturation cytokines).
# [5] = system: matriptase 170-204 peptide-specific CD4+ T cells; assay: Treg assay: coculture of peptide-specific CD4+ T cells with autologous alloreactive CD4+ T cells (MLR, 3H-TdR); type: cell-based, human
# Experimental: as §4
# DC-activated, peptide-specific T cells were tested for Treg activity in 3 day microwell cocultures with autologous alloreactive CD4^+ T cells at a 1:1 ratio. The alloreactive CD4^+ T cells were stimulated with irradiated (7,500 cGy) allogeneic LCL at a 2:1 ratio. Transwell cocultures were conducted in 12-well Costar plates with 0.4 μm polycarbonate membrane inserts, at the same cell ratios as conventional microwell cocultures. Peptide-specific T cells were placed in the upper chamber, and alloreactive CD4^+ T cells plus irradiated allogeneic LCL were placed in the lower chamber. For all assays, proliferation of alloreactive CD4^+ T cells was determined by addition of 1 μCi/well ^3H-TdR for the last 16 hours of incubation. No exogenous cytokines were added to Treg coculture assays. Controls were included to correct for background proliferation of individual cell populations or spontaneous alloreactivity of peptide-specific T cells.
# [6] = system: hepsin 48-84 peptide-specific CD4+ T cells; assay: TNFα expression by CD4+ T cells stimulated with treated DC; type: cell-based, human; settings: DC treated throughout culture; IL-15 100 ng/ml, inhibitor 10 μM; relative to standard DC; T cells maintained with IL-2
# Experimental: Foxp3 expression was determined according to the manufacturer's staining protocol (eBioscience), using the provided fixation and permeabilization buffers. Intracellular cytokine expression was measured by flow cytometry after overnight co-culture of T cells with peptide-pulsed or control autologous LCL. T cells (1.5×10^6) were plated in 12 well Costar plates in 2 ml RPMI/10Hu. T cells were stimulated with phorbol myristyl acetate (50 ng/ml) and ionomycin (500 ng/ml) as a positive control. At the onset of co-culture, 10 μg/ml of Brefeldin A was added to block cytokine release. Cells were collected after overnight stimulation and fixed in 2% paraformaldehyde in PBS for 10 minutes at room temperature. The cells were washed once in PBS and again in 0.5% saponin and 1% BSA in PBS. T cells were labeled with cytokine-specific PE or FITC-conjugated mAb for 30 minutes at room temperature. After staining, the cells were washed twice in 0.5% saponin and 1% BSA in PBS, once with 0.5% BSA in PBS, and fixed in 2% paraformaldehyde in PBS. Samples were analyzed with a FACSCalibur (Becton-Dickinson) and Cellquest or WinMDI software.
# Treatment of DC with IL-15 and a p38 MAP kinase inhibitor enhances CD4^+ helper T cell TNFα expression in response to tumor antigen stimulation, and diminishes Treg foxp3 expression. […]
# [7] = system: peptide-loaded autologous LCL; assay: 51Cr-release cytotoxicity assay, CD4+ T cells against peptide-loaded autologous LCL; type: cell-based, human
# Experimental: as §1, §2
# [8] = system: tumor antigen-specific CD4+ T cells; assay: CCR4 and CXCR4 expression by CD4+ T cells stimulated with treated DC; type: cell-based, human; settings: treatment of DC
# Experimental: as §5
# [9] = system: matriptase 170-204 peptide-specific CD8+ T cells; assay: Treg assay: coculture of peptide-specific CD8+ T cells with autologous alloreactive CD4+ T cells (MLR, 3H-TdR); type: cell-based, human
# Experimental: as §1, with “later.” for “later. The DC were then washed once with AIM-V medium and used for T cell stimulation at a PBMC:DC ratio of 30:1. After 7 days, T cells were collected and restimulated with peptide-loaded DC.”
# DC-activated, peptide-specific T cells were tested for Treg activity in 3 day microwell cocultures with autologous alloreactive CD4^+ T cells at a 1:1 ratio. […] For all assays, proliferation of alloreactive CD4^+ T cells was determined by addition of 1 μCi/well ^3H-TdR for the last 16 hours of incubation. […]
# [10] = system: matriptase 170-204 peptide-specific CD4+ T cells; assay: Intracellular Th1 cytokine (TNFα, IFNγ) expression after challenge with peptide-loaded autologous LCL; type: cell-based, human
# Experimental: as §1, with “5).” for “5). For stimulation of peptide-specific CD4^+ helper T cell and CD8^+ CTL responses, DC were loaded with 50 μg/ml of peptide on day 5 (at the time of addition of maturation cytokines) and the DC were harvested 2 days later. The DC were then washed once with AIM-V medium and used for T cell stimulation at a PBMC:DC ratio of 30:1. After 7 days, T cells were collected and restimulated with peptide-loaded DC.”
# as §3
# [11] = system: CD25 preferentially expressed by CD4+ Treg; settings: patients with renal cell carcinoma, combined with tumor RNA-transfected DC vaccination; cited from earlier work
# [12] = conventional DC or IL-15-treated DC, T cells maintained with IL-2 plus IL-15
# [13] = IL-15 added to CD4+ T cell cultures activated with conventional DC
substance,measurement,setting,value
"IL-15: interleukin-15, cytokine from R & D Systems, used at 100 ng/ml in DC and/or T cell culture","gain in lysis, CD8+ T cell cytotoxicity",[1]; IL-15 treatment of DC or CD8+ T cells,lower than observed for CD4^+ T cell responses
same,CD8+ T cell cytotoxicity against peptide-loaded LCL,[1]; combined treatment of both DC and CD8+ T cells with IL-15,strong synergistic increase
same,"Foxp3 expression, proportion of CD8+ T cells","[2]; activated with IL-15-treated DC, maintained with IL-2",37%
same,GITR expression by CD8+ T cells,[2]; [12],did not show increased GITR expression
same,frequency of Foxp3+ CD8+ T cells,[2]; [12],elevated frequencies
same,Foxp3 expression by CD4+ T cells,[3]; [13],did not result in a significant change
same,frequency of GITR+ CD4+ T cells (total),[3]; [13],8%
same,"Foxp3 expression, proportion of CD4+ T cells","[3]; activated with IL-15-treated DC (100 ng/ml), maintained with IL-2, conventionally activated cells 33%",20%
same,frequency of Foxp3+ and GITR+ CD4+ T cells,[3]; activated with IL-15 treated DC and maintained with IL-2 plus IL-15,markedly enhanced
same,PD-1 expression by tumor antigen-specific CD4+ helper T cells,[4],markedly reduces
same,restoration of the mixed lymphocyte reaction (CD4+ Treg activity),"[5]; IL-15-treated DC, or IL-15 treatment of CD4+ T cells activated with conventional DC",significant restoration
same,inhibition of the mixed lymphocyte reaction by peptide-specific CD4+ T cells (Treg activity),"[5]; T cells cultured with IL-15, or activated by DC cultured with IL-15, or both (bars B, C, D), conventional about 90%",less than 60%
same,restoration of the mixed lymphocyte reaction (CD4+ Treg activity),[5]; both DC and CD4+ T cells treated with IL-15,further enhancement of alloreactivity
same,restoration of the mixed lymphocyte reaction (CD4+ Treg activity),"[5]; peptide-specific CD4+ T cells irradiated before coculture, IL-15 on DC, T cells or both",almost total restoration of the MLR
same,CD4+ T cell TNFα expression upon tumor antigen stimulation,[6],did not significantly increase
same,CD4+ T cell lysis of peptide-loaded LCL,"[7]; IL-15-treated DC followed by culture with IL-2 plus IL-15, additive",further gain in lysis
same,CD4+ T cell cytotoxicity,[7]; IL-15 treatment of DC or CD4+ T cells,marked enhancement
same,CD4+ T cell expression of CCR4,[8],slightly inhibited
same,CD4+ T cell expression of CXCR4,[8],enhances
same,CD8+ Treg activity,[9]; IL-15 treatment of DC alone,particularly effective in diminishing
same,CD8+ regulatory function,"[9]; IL-15 treatment of DC, of CD8+ T cells, or both",markedly diminished
same,"antigen-driven cytokine responses (TNFα, IFNγ) of CD4+ T cells",[10]; combined IL-15 treatment of both DC and CD4+ T cells,synergistic gain
same,frequency of CD4+ T cells expressing TNFα and IFNγ,[10]; treatment of DC with IL-15 or treatment of CD4+ T cells with IL-15,small increment
p38 MAP kinase inhibitor III [reference compound],PD-1 expression by tumor antigen-specific CD4+ helper T cells,[4],markedly reduces
same,CD4+ T cell TNFα expression upon tumor antigen stimulation,[6],did not significantly increase
same,CD4+ T cell expression of CCR4,[8],markedly enhanced
same,CD4+ T cell expression of CXCR4,[8],inhibited
denileukin diftitox,Treg in the peripheral blood,[11],reduced numbers of Treg
same,generation of tumor-specific T cell responses,[11],enhanced generation of tumor-specific T cell responses
